In US20210161174A1, “FEED ADDITIVE FOR FARMED ANIMALS” (ADISSEO FRANCE S.A.S., priority 2018, published 2021):
Marks after values point to notes of the source that are not given here.

What was measured:
[1] = test system: wooden breast myopathies; assay: Example 2: wooden breast assessment by expert panel at 42 d; format: in vivo, Broiler Chicken (Cobb 500); details: for wooden breast means per treatment (WB): score scale WB0-WB4
Procedure: Study Animals: • Animal: Broiler Chicken • Breed/Strain: Cobb 500 • Description: Day-of-hatch male chicks, sexed at hatchery • Sex: Male
Processing: On day […] (12) birds are selected from each pen for processing (at 12 reps/trt: 576 birds in total; 144 birds/trt)
Wooden breast assessment was determined by an expert panel according to 5 levels: WB0, WB1, WB2, WB3, WB4 from no WB to severe WB.
Dietary Treatments • Control (NC, negative control without PQQ) • 0.2 ppm PQQ • 0.5 ppm PQQ • 1 ppm PQQ
Wooden Breast Scores were: WB 0—normal breast; WB 1—mild hardening in the upper; WB 2—moderate hardening in the upper and/or lower part of the fillet; WB 3—severe hardening; WB 4—severe hardening with hemorrhagic lesions, increased volume, and presence of yellow fluid.
Higher is the score per WB 3 and 4 categories, greater is the default. Conversely, for categories WB0 to WB2, higher is the score, better is the quality.
Wooden breast scores were: WB0—normal breast; WB1—mild hardening in the upper; WB 2—moderate hardening in the upper and/or lower part of the fillet; WB 3—severe hardening; WB 4—severe hardening with hemorrhagic lesions, increased volume, and presence of yellow fluid.

[2] = Example 2: broiler performance (body weight gain, feed intake, FCR), PQQ in diet, 0 to 42 days; format: in vivo, Broiler Chicken (Cobb 500)
From the text: Study Animals: • Animal: Broiler Chicken • Breed/Strain: Cobb 500 • Description: Day-of-hatch male chicks, sexed at hatchery • Sex: Male Total number of treatments: 4 Total number of replicates per treatment: 12 Total number of chicks per replicate: […] Initial age: day-of-hatch: 0 days-of-age Final age: 6 weeks: 42 days-of-age. Feed will be changed based on the days of each phase. • Starter feed will be weighed out and fed from day 0 to 7. • Grower feed will be weighed, issued and fed from day 8 until 21. • Finisher feed will be weighed, issued and fed from day 22 until 35. • Withdraw feed will be weighed, issued and fed from day 36 until 42. Performance: Feed consumption and pen weights are determined on days 0, 21, 35 and 42 to calculate average body weight (BW), body weight gain (BWG) and feed conversion ratio (FCR). Final bird weights: At the end of the grow-out period (Day 42), all birds are weighed, as well as any and all remaining feed. Randomized Complete Block Design with 4 treatments×12 replicates/treatment (40 birds/pen), randomized within blocks across the barn to minimize differences in environmental condition. The pen is the experimental unit. Dietary Treatments • Control (NC, negative control without PQQ) • 0.2 ppm PQQ • 0.5 ppm PQQ • 1 ppm PQQ The results are presented in tables 5 to 13 below for broilers fed diets from 0 to 42 days (d) of age. The values given are the mean and the P value.

O=C(O)c1cc(C(=O)O)c2c(n1)C(=O)C(=O)c1cc(C(=O)O)[nH]c1-2 [PQQ, pyrroloquinoline quinone]
wooden breast myopathies occurrence, WB0 ([1]; 0.2 ppm PQQ (T2)): 0.83% | wooden breast myopathies occurrence, WB1 ([1]; 0.2 ppm PQQ (T2)): 2.78% | wooden breast myopathies occurrence, WB2 ([1]; 0.2 ppm PQQ (T2)): 20.00^a % | wooden breast myopathies occurrence, WB3 ([1]; 0.2 ppm PQQ (T2)): 49.16^a % | wooden breast myopathies occurrence, WB4 ([1]; 0.2 ppm PQQ (T2)): 27.22% | wooden breast myopathies scores, WB0 ([1]; 0.2 ppm PQQ (T2)): 0.08 | wooden breast myopathies scores, WB1 ([1]; 0.2 ppm PQQ (T2)): 0.17 | wooden breast myopathies scores, WB2 ([1]; 0.2 ppm PQQ (T2)): 1.17^b | wooden breast myopathies scores, WB3 ([1]; 0.2 ppm PQQ (T2)): 2.92 | wooden breast myopathies scores, WB4 ([1]; 0.2 ppm PQQ (T2)): 1.67 | wooden breast means per treatment (WB) ([1]; 0.2 ppm PQQ (T2)): 2.92^a | wooden breast myopathies occurrence, WB0 ([1]; 0.5 ppm PQQ (T3)): 0.00% | wooden breast myopathies occurrence, WB1 ([1]; 0.5 ppm PQQ (T3)): 15.29% | wooden breast myopathies occurrence, WB2 ([1]; 0.5 ppm PQQ (T3)): 41.67^ab % | wooden breast myopathies occurrence, WB3 ([1]; 0.5 ppm PQQ (T3)): 30.56^ab % | wooden breast myopathies occurrence, WB4 ([1]; 0.5 ppm PQQ (T3)): 12.50% | wooden breast myopathies scores, WB0 ([1]; 0.5 ppm PQQ (T3)): 0.00 | wooden breast myopathies scores, WB1 ([1]; 0.5 ppm PQQ (T3)): 0.92 | wooden breast myopathies scores, WB2 ([1]; 0.5 ppm PQQ (T3)): 2.50^ab | wooden breast myopathies scores, WB3 ([1]; 0.5 ppm PQQ (T3)): 1.83 | wooden breast myopathies scores, WB4 ([1]; 0.5 ppm PQQ (T3)): 0.75 | wooden breast means per treatment (WB) ([1]; 0.5 ppm PQQ (T3)): 2.36^b | change in proportion of WB2 breast fillets with supplementation ([1]; 1 ppm PQQ): +50% | change in proportion of WB4 breast fillets with supplementation ([1]; 1 ppm PQQ): −60% | wooden breast myopathies occurrence, WB0 ([1]; 1.0 ppm PQQ (T4)): 0.00% | wooden breast myopathies occurrence, WB1 ([1]; 1.0 ppm PQQ (T4)): 18.05% | wooden breast myopathies occurrence, WB2 ([1]; 1.0 ppm PQQ (T4)): 46.94^a % | wooden breast myopathies occurrence, WB3 ([1]; 1.0 ppm PQQ (T4)): 25.00^b % | wooden breast myopathies occurrence, WB4 ([1]; 1.0 ppm PQQ (T4)): 10.00% | wooden breast myopathies scores, WB0 ([1]; 1.0 ppm PQQ (T4)): 0.00 | wooden breast myopathies scores, WB1 ([1]; 1.0 ppm PQQ (T4)): 1.08 | wooden breast myopathies scores, WB2 ([1]; 1.0 ppm PQQ (T4)): 2.75^a | wooden breast myopathies scores, WB3 ([1]; 1.0 ppm PQQ (T4)): 1.50 | wooden breast myopathies scores, WB4 ([1]; 1.0 ppm PQQ (T4)): 0.58 | wooden breast means per treatment (WB) ([1]; 1.0 ppm PQQ (T4)): 2.26^b | proportions of bad quality fillets (WB3 and WB4) ([1]; supplementation with PQQ): lower proportions | proportions of good quality breast fillets (WB0 to WB2) ([1]; supplementation with PQQ): higher proportions | Cumulative feed intake of broilers ([2]; 0.2 ppm PQQ (T2), 1 t1o 42 d): 5365 g | Cumulative feed intake of broilers ([2]; 0.2 ppm PQQ (T2), 1 to1 21 d): 835 g | feed intake of broilers ([2]; 0.2 ppm PQQ (T2), 1 to 7 d): 158 g | cumulative body weight gain of broilers ([2]; 0.2 ppm PQQ (T2), 1 to 21 d): 624 g | cumulative feed conversion ratio of broilers ([2]; 0.2 ppm PQQ (T2), 1 to 21 d): 1.355 | cumulative body weight gain of broilers ([2]; 0.2 ppm PQQ (T2), 1 to 35 d): 2125 g | cumulative feed conversion ratio of broilers ([2]; 0.2 ppm PQQ (T2), 1 to 35 d): 1.494 | cumulative body weight gain of broilers ([2]; 0.2 ppm PQQ (T2), 1 to 42 d): 3204 g | cumulative feed conversion ratio of broilers ([2]; 0.2 ppm PQQ (T2), 1 to 42 d): 1.674 | feed intake of broilers ([2]; 0.2 ppm PQQ (T2), 8 to 21 d): 677 g | Cumulative feed intake of broilers ([2]; 0.2 ppm PQQ (T2), 11 to 35 d): 3173 g | feed intake of broilers ([2]; 0.2 ppm PQQ (T2), 22 to 35 d): 2346 g | feed intake of broilers ([2]; 0.2 ppm PQQ (T2), 36 to 42 d): 2218 g | Cumulative feed intake of broilers ([2]; 0.5 ppm PQQ (T3), 1 t1o 42 d): 5316 g | Cumulative feed intake of broilers ([2]; 0.5 ppm PQQ (T3), 1 to1 21 d): 853 g | feed intake of broilers ([2]; 0.5 ppm PQQ (T3), 1 to 7 d): 156 g | cumulative body weight gain of broilers ([2]; 0.5 ppm PQQ (T3), 1 to 21 d): 608 g | cumulative feed conversion ratio of broilers ([2]; 0.5 ppm PQQ (T3), 1 to 21 d): 1.402 | cumulative body weight gain of broilers ([2]; 0.5 ppm PQQ (T3), 1 to 35 d): 2123 g | cumulative feed conversion ratio of broilers ([2]; 0.5 ppm PQQ (T3), 1 to 35 d): 1.526 | cumulative body weight gain of broilers ([2]; 0.5 ppm PQQ (T3), 1 to 42 d): 3166 g | cumulative feed conversion ratio of broilers ([2]; 0.5 ppm PQQ (T3), 1 to 42 d): 1.675 | feed intake of broilers ([2]; 0.5 ppm PQQ (T3), 8 to 21 d): 699 g | Cumulative feed intake of broilers ([2]; 0.5 ppm PQQ (T3), 11 to 35 d): 3236 g | feed intake of broilers ([2]; 0.5 ppm PQQ (T3), 22 to 35 d): 2390 g | feed intake of broilers ([2]; 0.5 ppm PQQ (T3), 36 to 42 d): 2105 g | Cumulative feed intake of broilers ([2]; 1.0 ppm PQQ (T4), 1 t1o 42 d): 5449 g | Cumulative feed intake of broilers ([2]; 1.0 ppm PQQ (T4), 1 to1 21 d): 905 g | feed intake of broilers ([2]; 1.0 ppm PQQ (T4), 1 to 7 d): 159 g | cumulative body weight gain of broilers ([2]; 1.0 ppm PQQ (T4), 1 to 21 d): 630 g | cumulative feed conversion ratio of broilers ([2]; 1.0 ppm PQQ (T4), 1 to 21 d): 1.429 | cumulative body weight gain of broilers ([2]; 1.0 ppm PQQ (T4), 1 to 35 d): 2178 g | cumulative feed conversion ratio of broilers ([2]; 1.0 ppm PQQ (T4), 1 to 35 d): 1.540 | cumulative body weight gain of broilers ([2]; 1.0 ppm PQQ (T4), 1 to 42 d): 3188 g | cumulative feed conversion ratio of broilers ([2]; 1.0 ppm PQQ (T4), 1 to 42 d): 1.708 | feed intake of broilers ([2]; 1.0 ppm PQQ (T4), 8 to 21 d): 747 g | Cumulative feed intake of broilers ([2]; 1.0 ppm PQQ (T4), 11 to 35 d): 3357 g | feed intake of broilers ([2]; 1.0 ppm PQQ (T4), 22 to 35 d): 2459 g | feed intake of broilers ([2]; 1.0 ppm PQQ (T4), 36 to 42 d): 2113 g | influence on the body weight ([2]; each concentration (0.2, 0.5, 1.0 ppm)): positive influence
